The results in this text go back to patent US12428406B2 (PMV Pharmaceuticals, Inc., priority 2019, dated 2025).

In this assay the target is T1, p53 Y220C (Homo sapiens, UniProt P04637, Y220C).
T1 construct: The recombinant protein was a truncation mutant containing only amino acids 94-312 of p53; made in house; host or cells: E. coli
T1 sequence (P04637 94-312, change not shown): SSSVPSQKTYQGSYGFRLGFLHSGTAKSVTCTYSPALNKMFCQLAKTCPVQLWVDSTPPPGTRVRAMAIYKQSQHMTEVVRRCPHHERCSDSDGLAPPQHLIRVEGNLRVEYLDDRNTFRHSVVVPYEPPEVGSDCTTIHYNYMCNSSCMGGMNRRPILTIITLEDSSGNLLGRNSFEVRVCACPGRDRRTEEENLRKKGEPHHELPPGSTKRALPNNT
In words: In vitro DNA binding activity assay (HTRF / TR-FRET): stabilization of p53 Y220C and increase of its DNA binding activity. The class given is biochemical. Conditions: recombinant His-tagged p53 Y220C DNA binding domain (aa 94-312), biotin-labeled consensus DNA, incubated at 27° C. or 29° C. for 60 min. The gist of the method: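 Homogeneous time-resolved fluorescence with E. coli-derived p53 Y220C and biotinylated consensus DNA. Room-temperature incubations of 15 and 20 min precede reading. SC150 denotes the compound concentration required for 50% increased DNA binding.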
For orientation: In TR-FRET formats the signal depends on donor and acceptor labels being close together.
As to `COc1cc(Cl)ccc1NCC#Cc1cc2c(N[C@H]3CC[C@H](N(C)C)CC3)cccc2n1CC(F)(F)F` [Compound 130A, (1R,4R)—N^4-(2-{3-[(4-chloro-2-methoxyphenyl)amino]prop-1-yn-1-yl}-1-(2,2,2-trifluoroethyl)-1H-indol-4-yl)-N^1,N^1-dimethylcyclohexane-1,4-diamine], the “SC150 (concentration of the compound required to increase the DNA binding activity by 50%)” value is reported as “+ (+ = 0 μM ≤ SC150 < 0.05 μM)”.
Then `COc1cc(C(N)=O)c(F)cc1NCC#Cc1cc2c(N[C@H]3CC[C@H](N(C)C)CC3)cccc2n1CC(F)(F)F` [Compound 132A, 4-((3-(4-(((1R,4R)-4-(dimethylamino)cyclohexyl)amino)-1-(2,2,2-trifluoroethyl)-1H-indol-2-yl)prop-2-yn-1-yl)amino)-2-fluoro-5-methoxybenzamide], with “+ (+ = 0 μM ≤ SC150 < 0.05 μM)”.
Then `COc1cc(C(F)(F)F)ccc1NCC#Cc1cc2c(N[C@H]3CC[C@H](N(C)C)CC3)cccc2n1CC(F)(F)F` [Compound 134A, (1R,4R)—N^4-[2-(3-{[2-methoxy-4-(trifluoromethyl)phenyl]amino}prop-1-yn-1-yl)-1-(2,2,2-trifluoroethyl)-1H-indol-4-yl]-N^1,N^1-dimethylcyclohexane-1,4-diamine], with “+ (+ = 0 μM ≤ SC150 < 0.05 μM)”; and `CNC(=O)c1cc(OC)c(NCC#Cc2cc3c(N[C@H]4CC[C@H](N(C)C)CC4)cccc3n2CC(F)(F)F)cc1F` [Compound 136A, 2-fluoro-5-methoxy-N-methyl-4-{[3-(4-{[(1R,4R)-4-(dimethylamino)cyclohexyl]amino}-1-(2,2,2-trifluoroethyl)-1H-indol-2-yl)prop-2-yn-1-yl]amino}benzamide], with “+ (+ = 0 μM ≤ SC150 < 0.05 μM)”; and `CN(C)[C@H]1CC[C@@H](Nc2cccc3c2cc(C#CCNc2ccc(S(C)(=O)=O)cc2C(F)(F)F)n3CC(F)(F)F)CC1` [Compound 138A, (1S,4S)-N^4-[2-(3-{[4-methanesulfonyl-2-(trifluoromethyl)phenyl]amino}prop-1-yn-1-yl)-1-(2,2,2-trifluoroethyl)-1H-indol-4-yl]-N^1,N^1-dimethylcyclohexane-1,4-diamine], with “+++ (+++ = 0.1 μM ≤ SC150 < 0.2 μM)”.
Take `CN(C)[C@H]1CC[C@H](Nc2cccc3c2cc(C#CCNc2ccc(S(C)(=O)=O)cc2C(F)(F)F)n3CC(F)(F)F)CC1` [Compound 139A, (1R,4R)-N^4-[2-(3-{[4-methanesulfonyl-2-(trifluoromethyl)phenyl]amino}prop-1-yn-1-yl)-1-(2,2,2-trifluoroethyl)-1H-indol-4-yl]-N^1,N^1-dimethylcyclohexane-1,4-diamine]: the “SC150 (concentration of the compound required to increase the DNA binding activity by 50%)” value is given as “+ (+ = 0 μM ≤ SC150 < 0.05 μM)”.
The entry for `Cc1cc(S(C)(=O)=O)ccc1NCC#Cc1cc2c(N[C@H]3CC[C@H](N(C)C)CC3)cccc2n1CC(F)(F)F` [Compound 140A] is “+ (+ = 0 μM ≤ SC150 < 0.05 μM)”; for `CN(C)[C@H]1CC[C@H](Nc2cccc3c2cc(C#CCNc2ccc(S(C)(=O)=O)cc2OC(F)(F)F)n3CC(F)(F)F)CC1` [Compound 142A] it is “+ (+ = 0 μM ≤ SC150 < 0.05 μM)”.
For `CCN(CC)[C@H]1CC[C@H](Nc2cccc3c2cc(C#CCNc2ccc(C(=O)NC)cc2OC)n3CC(F)(F)F)CC1` [Compound 144A, 3-methoxy-N-methyl-4-{[3-(4-([(1R,4R)-4-(diethylamino)cyclohexyl]amino}-1-(2,2,2-trifluoro-ethyl)-1H-indol-2-yl)prop-2-yn-1-yl]amino}benzamide], the “SC150 (concentration of the compound required to increase the DNA binding activity by 50%)” value is recorded as “+ (+ = 0 μM ≤ SC150 < 0.05 μM)”.
For the molecule `CCN(CC)[C@H]1CC[C@H](Nc2cccc3c2cc(C#CCNc2ccc(S(N)(=O)=O)cc2OC)n3CC(F)(F)F)CC1` [Compound 146A, 3-methoxy-4-{[3-(4-{[(1R,4R)-4-(diethyl-amino)cyclohexyl]amino}-1-(2,2,2-trifluoroethyl)-1H-indol-2-yl)prop-2-yn-1-yl]amino}benzene-1-sulfonamide], the “SC150 (concentration of the compound required to increase the DNA binding activity by 50%)” value is “+ (+ = 0 μM ≤ SC150 < 0.05 μM)”.
On to `CCN(CC)[C@H]1CC[C@H](Nc2cccc3c2cc(C#CCNc2ccc(S(=O)(=O)NC)cc2OC)n3CC(F)(F)F)CC1` [Compound 148A, 3-methoxy-N-methyl-4-{[3-(4-{[(1R,4R)-4-(diethylamino)cyclohexyl]amino}-1-(2,2,2-trifluoroethyl)-1H-indol-2-yl)prop-2-yn-1-yl]amino}benzene-1-sulfonamide], for which the “SC150 (concentration of the compound required to increase the DNA binding activity by 50%)” value was “+ (+ = 0 μM ≤ SC150 < 0.05 μM)”.
Turning to `COCCN(C)[C@H]1CC[C@H](Nc2cccc3c2cc(C#CCNc2ccc(S(C)(=O)=O)cc2OCC#N)n3CC(F)(F)F)CC1` [Compound 149A], the “SC150 (concentration of the compound required to increase the DNA binding activity by 50%)” value is recorded as “+ (+ = 0 μM ≤ SC150 < 0.05 μM)”.
Consider `COCCN(C)[C@H]1CC[C@@H](Nc2cccc3c2cc(C#CCNc2ccc(S(C)(=O)=O)cc2OCC#N)n3CC(F)(F)F)CC1` [Compound 150A], for which the “SC150 (concentration of the compound required to increase the DNA binding activity by 50%)” value is “+ (+ = 0 μM ≤ SC150 < 0.05 μM)”.
As to `CNC(=O)c1ccc(NCC#Cc2cc3c(N[C@H]4CC[C@H](N(C)CCOC)CC4)cccc3n2CC(F)(F)F)c(OC)c1` [Compound 151A, 3-methoxy-N-methyl-4-{[3-(4-{[(1R,4R)-4-[(2-methoxyethyl) (methyl)amino]cyclo-hexyl]amino}-1-(2,2,2-trifluoroethyl)-1H-indol-2-yl)prop-2-yn-1-yl]amino}benzamide], the “SC150 (concentration of the compound required to increase the DNA binding activity by 50%)” value is reported as “+ (+ = 0 μM ≤ SC150 < 0.05 μM)”.
As to `CNC(=O)c1ccc(NCC#Cc2cc3c(N[C@H]4CC[C@@H](N(C)CCOC)CC4)cccc3n2CC(F)(F)F)c(OC)c1` [Compound 152A, 3-methoxy-N-methyl-4-{[3-(4-{[(1S,4S)-4-[(2-methoxyethyl) (methyl)amino]cyclohexyl]amino}-1-(2,2,2-trifluoroethyl)-1H-indol-2-yl)prop-2-yn-1-yl]amino}benzamide], the “SC150 (concentration of the compound required to increase the DNA binding activity by 50%)” value was “+ (+ = 0 μM ≤ SC150 < 0.05 μM)”.
Take `CCNC(=O)c1ccc(NCC#Cc2cc3c(N[C@H]4CC[C@H](N(C)CCOC)CC4)cccc3n2CC(F)(F)F)c(OC)c1` [Compound 153A, N-ethyl-3-methoxy-4-((3-(4-((4-((2-methoxyethyl)(methyl)amino)cyclohexyl)amino)-1-(2,2,2-trifluoroethyl)-1H-indol-2-yl)prop-2-yn-1-yl)amino)benzamide]: the “SC150 (concentration of the compound required to increase the DNA binding activity by 50%)” value is reported as “+ (+ = 0 μM ≤ SC150 < 0.05 μM)”.
As to `COCCN(C)[C@H]1CC[C@H](Nc2cccc3c2cc(C#CCNc2ccc(S(C)(=O)=O)cc2OCF)n3CC(F)(F)F)CC1` [Compound 155A, (1R,4R)—N^1-(2-(3-((2-(fluoromethoxy)-4-(methylsulfonyl)phenyl)amino)prop-1-yn-1-yl)-1-(2,2,2-trifluoroethyl)-1H-indol-4-yl)-N^4-(2-methoxyethyl)-N^4-methylcyclohexane-1,4-diamine], the “SC150 (concentration of the compound required to increase the DNA binding activity by 50%)” value is given as “+ (+ = 0 μM ≤ SC150 < 0.05 μM)”.
With `COCCN(C)[C@H]1CC[C@H](Nc2cccc3c2cc(C#CCNc2ccc(S(N)(=O)=O)cc2OC)n3CC(F)(F)F)CC1` [Compound 160A, 3-methoxy-4-{[3-(4-{[(1R,4R)-4-[(2-methoxyethyl)(methyl)amino]cyclohexyl]amino}-1-(2,2,2-trifluoroethyl)-1H-indol-2-yl)prop-2-yn-1-yl]amino}benzene-1-sulfonamide], the “SC150 (concentration of the compound required to increase the DNA binding activity by 50%)” value is given as “+ (+ = 0 μM ≤ SC150 < 0.05 μM)”.
The entry for `CCN(CC)[C@H]1CC[C@H](Nc2cccc3c2cc(C#CCNc2ccc(S(C)(=O)=O)cc2OC)n3CC(F)(F)F)CC1` [Compound 162A, (1R,4R)-N^1,N^1-diethyl-N4-(2-{3-[(4-methanesulfonyl-2-methoxyphenyl)amino]prop-1-yn-1-yl}-1-(2,2,2-trifluoroethyl)-1H-indol-4-yl)cyclohexane-1,4-diamine] is “+ (+ = 0 μM ≤ SC150 < 0.05 μM)”; for `COCCN(C)[C@H]1CC[C@H](Nc2cccc3c2cc(C#CCNc2ccc(S(N)(=O)=O)cc2OCC#N)n3CC(F)(F)F)CC1` [Compound 164A, 3-(cyanomethoxy)-4-{[3-(4-{[(1R,4R)-4-[(2-methoxyethyl) (methyl)amino]cyclo-hexyl]amino}-1-(2,2,2-trifluoroethyl)-1H-indol-2-yl)prop-2-yn-1-yl]amino}benzene-1-sulfonamide] it is “+ (+ = 0 μM ≤ SC150 < 0.05 μM)”.
With `COCCN(C)[C@H]1CC[C@@H](Nc2cccc3c2cc(C#CCNc2ccc(S(N)(=O)=O)cc2OCC#N)n3CC(F)(F)F)CC1` [Compound 165A, 3-(cyanomethoxy)-4-{[3-(4-{[(1S,4S)-4-[(2-methoxyethyl)(methyl)amino]cyclohexyl]amino}-1-(2,2,2-trifluoroethyl)-1H-indol-2-yl)prop-2-yn-1-yl]amino}benzene-1-sulfonamide], the “SC150 (concentration of the compound required to increase the DNA binding activity by 50%)” value was “+ (+ = 0 μM ≤ SC150 < 0.05 μM)”.
The entry for `COCCN(CCOC)[C@H]1CC[C@H](Nc2cccc3c2cc(C#CCNc2ccc(S(N)(=O)=O)cc2OCF)n3CC(F)(F)F)CC1` [Compound 166A, 3-(fluoromethoxy)-4-{[3-(4-{[(1R,4R)-4-[bis(2-methoxyethyl)amino]cyclohexyl]amino}-1-(2,2,2-trifluoro-ethyl)-1H-indol-2-yl)prop-2-yn-1-yl]amino} benzene-1-sulfonamide] is “+ (+ = 0 μM ≤ SC150 < 0.05 μM)”.
